{"source": "patent US6491922B1", "about": "“Methods and compounds for treating autoimmune and vascular disease” (Cornell Research Foundation, Inc., priority 1996, dated 2002)", "key": {"IL-1β promoter": {"system": "IL-1β promoter", "format": "cell-based, human", "conditions": "for suppression of endotoxin-induced CAT activity: LPG 2 μM 1 h; for suppression of LPS-induced CAT activity: 2 μM LPG 2 h"}, "[1]": {"system": "HIV p24 antigen, U1 cells", "assay": "HIV p24 antigen production in chronically HIV-infected U1 cells", "format": "cell-based", "conditions": "72 h", "experimental": "LPG, the major surface molecule of Leishmania, has macrophage deactivating functions. Based on the ability of LPG to suppress the generation of ROI and cytokine gene expression, we evaluated the potential that LPG may similarly suppress HIV production. FIGS. 27A-D illustrate the effect of 2 μM LPG pretreatment for 2 h on the induction HIV from chronically HIV-infected monocytic and T cell lines respectively, U1 and ACH-2 cells. LPG treatment of U1 cells for 72 h inhibited basal production of HIV p24 antigen at basal and induction in response to PMA, TNF-α and LPS by 90%, 82%, 60% and 66%, respectively (FIGS. 27A, B). The suppression of HIV p24 antigen production was time-dependent (FIG. 27B). […] The inhibition was also time-dependent. The results are the mean of 2 separate experiments and the SD was less than 10%."}, "VCAM-1": {"system": "VCAM-1", "assay": "Endotoxin-induced VCAM-1 expression on endothelial cells (FACS)", "format": "cell-based, human"}, "[2]": {"system": "human umbilical vein endothelial cells", "assay": "LPG and LPG fragment binding to endothelial cells (indirect immunofluorescence, FACS)", "conditions": "LPG 1 μM"}, "[3]": {"system": "DNA sequence from the −310 to −57 region of the IL-1β promoter", "assay": "Gel shift assay of nuclear protein binding to IL-1β promoter DNA", "format": "cell-based, human", "conditions": "THP-1 cells treated with LPG; preliminary data"}, "U1 and ACH-2 cells": {"system": "U1 and ACH-2 cells", "assay": "Cell viability and proliferation (bromo-deoxy-uridine incorporation) of HIV-infected cell lines", "format": "cell-based, human"}, "tissue factor": {"system": "tissue factor", "assay": "Tissue factor production by endothelial cells (one-stage clotting assay)", "format": "cell-based, human", "experimental": "Endothelial cell monolayers were pretreated with LPG for 1 hour and stimulated with endotoxin. Cultured endothelial cells, when stimulated by endotoxin, expressed high amounts of tissue factor. […] The production of tissue factor (in culture supernatant) is determined by a one-stage clotting assay. Helin et. al., “Allogeneic Induction of the Human T-cell-instructed Monocyte Procoagulant Response is Rapid and is Elicited by HLA-DR,” J. Exp. Med. 158: 962-75 (1983), which is hereby incorporated by reference.\nTo further examine if LPG can inhibit other endothelial cell functions, it was determined whether LPG inhibits thrombosis. Since thrombosis is mediated by the release of tissue factor (“TF”) by endothelial cells, the ability of LPG to inhibit TF production was evaluated. Cultured endothelial cells when stimulated by endotoxin express TF as determined by a one-stage clotting assay. Helin et. al., “Allogeneic Induction of the Human T-cell-instructed Monocyte Procoagulant Response is Rapid and is Elicited by HLA-DR,” J. Exp. Med. 158: 962-75 (1983), which is hereby incorporated by reference. […] To explore whether this effect was agonist specific, another agonist, TNF-α which is known to up-regulate TF generation, was used."}, "endothelial cells [4]": {"system": "endothelial cells", "assay": "^3H-lyso-PI binding to endothelial cells", "set-up": "species or system human", "conditions": "cold-LPG competition at 20×molar excess; n=2", "experimental": "To evaluate whether lyso-PI may directly bind to endothelial cells, endothelial cells (10^6 per ml) were incubated with ^3H-lyso-PI (1 μM [specific activity, ˜10,000 cpm/nmole], 45 min, 25° C.). As a control, endothelial cells were pretreated with LPG (20 μM, 15 min, 25° C.) before the incubation with ^3H-lyso-PI. Following incubation, the cell suspension was layed onto silicone oil (Silicones FC-50, General Electric, Waterford, N.Y.) and cell-bound ^3H-lyso-PI was separated from free-^3H-lyso-PI by centrifugation (10,000 g, 10 min, room temperature). The amount of ^3H-lyso-PI in the cell pellet and in the supernatant were solubilized in Ecoscint (National Diagnostics, Highland Park, N.J.) and quantitated by a β-emission counter (Beckman Instruments, Palo Alto, Calif.)."}, "ICAM-1": {"system": "ICAM-1", "assay": "Endotoxin-induced ICAM-1 expression on endothelial cells (FACS)", "format": "cell-based, human", "conditions": "LPG pretreatment 1 h", "experimental": "(§1) Endothelial cells pretreated with LPG at indicated amounts for 1 h were subsequently challenged with endotoxin. Washed cells incubated with monoclonal antibody specific for E-selectin or ICAM-1 were counter stained with fluorescein labeled anti-murine antibody, fixed and analyzed by FACS."}, "TNF-α mRNA": {"system": "TNF-α mRNA", "assay": "TNF-α mRNA expression and stability after endotoxin", "format": "cell-based, human"}, "IL-1β mRNA [5]": {"system": "IL-1β mRNA", "assay": "Northern analysis of IL-1β mRNA induction in peripheral blood monocytes", "conditions": "2 μM LPG pretreatment 2 h, N=2", "text": "Human peripheral blood cells from the New York Blood Center (New York, N.Y.) obtained by Hypaque-Ficoll density centrifugation and adherence to plastic are 99% monocytes. […] Human monocytic cells THP-1 (TIB-202) and plasmid containing glyceraldehyde-3-phosphate dehydrogenase [GAPDH] cDNA (cat. #57090) were obtained from American Type Culture Collection (ATCC), Rockville, MdD. […] RPMI-1640, fetal bovine serum, L-glutamine, and penicillin-streptomycin (Gibco, Grand Island, N.Y.); β-mercaptoethanol, phorbol 12-myristate 13-acetate (PMA) and LPS from Escherichia coli serotype 055: B5 were purchased from the Sigma Chemical Co., St. Louis, Miss.\nHuman monocytes were cultured in endotoxin free complete medium as previously described. […]\nCells treated with or without LPG and/or inducers of IL-1β were harvested by gentle scrapping using a rubber policeman and sedimented by centrifugation at 500 g for 5 minutes in a microfuge. Total RNA was extracted using RNA STAT-60 solution (TEL-TEST “B” Inc., Friendswood, Tex.), based on a single step method for RNA isolation (P. Chomczynski and N. Sacchi, “Single-step Method of RNA Isolation by Acid Guanidinium Thiocyanate-phenol-chloroform Extraction,” Anal. Biochem., 162:156-59 (1987), hereby incorporated by reference), and quantitated by spectrophotometry."}, "E-selectin": {"system": "E-selectin", "assay": "Endotoxin-induced E-selectin expression on endothelial cells (FACS)", "format": "cell-based, human", "conditions": "LPG pretreatment 1 h", "experimental": "as §1"}, "endothelial cells [6]": {"system": "endothelial cells", "assay": "Endothelial adhesion to monocytes (MM6) assay", "quoted_text": "Endothelial cell were isolated from human umbilical veins by an established method as described. […] In all experiments, 2-4 passages of subcultured endothelial cells were used and were grown on fibronectin-precoated 96-well plates for 2-3 days prior to use.\nOn the day of the experiment, endothelial cells were treated with endotoxin (E. coli, J5, 10 ng/ml) for 4 h. MM6 (1×10^5 cells) were subsequently added to the endotoxin-stimulated endothelial cells. Monocyte adhesion was performed for 20 min at 37° C. Unbound MM6 cells were removed by washing (3×). Adhesion of MM6 onto endothelium was quantitated by counting the bound MM6 cells under a microscope. […] The values of triplicates were averaged, and variations between triplicates were <5%. […] For experiments to examine if LPG could inhibit endotoxin-mediated monocyte adhesion, the endothelial cells were first preincubated with LPG (2 μM) for 1-2 h at 37° C. prior to the addition of endotoxin."}, "IL-1β mRNA [7]": {"system": "IL-1β mRNA", "assay": "IL-1β mRNA stability with actinomycin D in THP-1 cells", "format": "cell-based, human", "conditions": "2 μM LPG simultaneous with LPS 2 μg/ml, actinomycin D after 2 h", "experimental": "THP-1 cells (10^7 cells/condition) were stimulated with 2 μg/ml LPS or 2 μg/ml LPS with 2 μM LPG at time 0 h. Actinomycin D (6 μg/ml) was added to all conditions 2 h later and cells were harvested by gentle scraping for extraction of total RNA at the designated time. The 2 h time point after LPS or LPS plus LPG treatment was used as the respective reference for comparison with residual IL-1β mRNA at the later time points. For each condition and time, the total RNA separated on agarose gel, transferred and immobilized on nylon membrane were probed with ^32P-labeled IL-1β cDNA or GAPDH cDNA."}}, "note": "Several values for one entry are separate records, joined by “and”; a condition that tells them apart may be missing. Equal entries are not always repeated. Entries after “also recorded” stand apart in the source; their conditions may differ. Where two headings read alike, the source gives them in different places.", "data": [{"substance": "lipophosphoglycan [LPG]", "values": [{"measurement": "LPG's inhibitory activity on LPS-induced CAT activity", "setting": "IL-1β promoter; IL-1β promoter deleted to −57", "value": "completely abrogated; also recorded: no LPG inhibitory activity"}, {"measurement": "suppression of CAT activity", "setting": "IL-1β promoter; IL-1β promoter truncated to −131", "value": "7%+1% and 7%"}, {"measurement": "suppression of endotoxin-induced CAT activity", "setting": "IL-1β promoter; deletional mutant X2-HT-CAT (−3757 to −2729 linked to −131 to +11)", "value": "8%+4% and 8%"}, {"measurement": "suppression of endotoxin-induced CAT activity", "setting": "IL-1β promoter; full-length −3757 to +11 construct (XT-CAT), n=5", "value": 50, "unit": "%+5%"}, {"measurement": "effect on endotoxin-activation of IL-1β promoter activity in presence of serum", "setting": "IL-1β promoter; medium with 2.5% or 5% FBS, LPG 2 μM 2 h, LPS 2 μg/ml", "value": "suppresses; also recorded: similar"}, {"measurement": "suppression of LPS-induced CAT activity", "setting": "IL-1β promoter; plasmid with −310/+15 promoter sequence, LPS 2 μg/ml", "value": "approximately 40%"}, {"measurement": "suppression of LPS-induced CAT activity", "setting": "IL-1β promoter; plasmid with −680/+15 promoter sequence, LPS 2 μg/ml", "value": "approximately 40%"}, {"measurement": "suppression of LPS-induced CAT activity", "setting": "IL-1β promoter; plasmid with −1110/+15 promoter sequence, LPS 2 μg/ml", "value": "approximately 40%"}, {"measurement": "inhibition of HIV p24 antigen induction in response to LPS", "setting": "[1]; 2 μM LPG pretreatment 2 h", "value": 66, "unit": "%"}, {"measurement": "inhibition of HIV p24 antigen induction in response to PMA", "setting": "[1]; 2 μM LPG pretreatment 2 h", "value": 82, "unit": "%"}, {"measurement": "inhibition of HIV p24 antigen induction in response to TNF-α", "setting": "[1]; 2 μM LPG pretreatment 2 h", "value": 60, "unit": "%"}, {"measurement": "inhibition of basal production of HIV p24 antigen", "setting": "[1]; 2 μM LPG", "value": 90, "unit": "%"}, {"measurement": "effect on endotoxin-mediated expression of VCAM-1", "setting": "VCAM-1", "value": "strongly suppressed"}, {"measurement": "time at which LPG binding was obvious", "setting": "[2]", "value": 16, "unit": "min"}, {"measurement": "LPG binding", "setting": "[2]; 1 h", "value": "significant LPG was bound"}, {"measurement": "induction of nuclear protein(s) binding to promoter DNA sequence", "setting": "[3]", "value": "induced the presence of a nuclear protein(s) that bound a DNA sequence derived from this region"}, {"measurement": "percentages of viable cells", "setting": "U1 and ACH-2 cells; cells treated or not treated with LPG", "value": 98, "unit": "%"}, {"measurement": "effect on cell proliferation (bromo-deoxy-uridine incorporation)", "setting": "U1 and ACH-2 cells; each of the stimulation conditions", "value": "did not alter"}, {"measurement": "effect on TNF-α induction of endothelial cell production of TF", "setting": "tissue factor", "value": "no effect"}, {"measurement": "effect on endotoxin-induction of TF", "setting": "tissue factor; LPG 2 μM", "value": "completely abrogated"}, {"measurement": "effect on endotoxin induction of TF production", "setting": "tissue factor; LPG pretreatment 1 hour", "value": "dose-dependent inhibition"}, {"measurement": "inhibition of ^3H-lyso-PI binding", "setting": "endothelial cells [4]", "value": "29±3", "unit": "%"}, {"measurement": "effect on endotoxin-mediated expression of ICAM-1", "setting": "ICAM-1", "value": "strongly suppressed; also recorded: blockage or suppression"}, {"measurement": "effect on endotoxin induction of TNF-α expression", "setting": "TNF-α mRNA; LPG added 2 h after endotoxin", "value": "effective"}, {"measurement": "effect on endotoxin induction of TNF-α expression", "setting": "TNF-α mRNA; LPG added 4 h prior to addition of endotoxin", "value": "significantly suppressed"}, {"measurement": "effect on TNF-α mRNA stability", "setting": "TNF-α mRNA; actinomycin D, data not shown", "value": "minimal effect"}, {"measurement": "inhibition of LPS induction of IL-1β mRNA", "setting": "IL-1β mRNA [5]; LPS 2 μg/ml", "value": "greater than 90%"}, {"measurement": "inhibition of S. epidermidis induction of IL-1β mRNA", "setting": "IL-1β mRNA [5]", "value": "greater than 80%"}, {"measurement": "effect on endotoxin-mediated expression of E-selectin", "setting": "E-selectin", "value": "strongly suppressed; also recorded: blockage or suppression"}, {"measurement": "inhibition of endotoxin-mediated monocyte adhesion (dose-dependent 0.01 μM to 2 μM)", "setting": "endothelial cells [6]; 2 μM LPG pretreatment, endotoxin 10 ng/ml 4 h", "value": "completely inhibiting"}, {"measurement": "effect on IL-1β-mediated endothelial cell adhesion", "setting": "endothelial cells [6]; IL-1β 100 U/ml, n=4", "value": "lack of LPG inhibitory activity"}, {"measurement": "inhibition of endotoxin-mediated monocyte adhesion (time-dependent)", "setting": "endothelial cells [6]; LPG 2 μM, 2 h pretreatment, endotoxin 10 ng/ml 4 h", "value": "completely abrogating"}, {"measurement": "TNF-α-mediated endothelial adhesion to monocytes", "setting": "endothelial cells [6]; LPG plus TNF-α, TNF-α alone 1,750±100, basal 100±50, n=6", "value": "1,650±130 cell/mm^2"}, {"measurement": "minimal pretreatment time required for inhibition of endotoxin-mediated monocyte adhesion", "setting": "endothelial cells [6]; endothelial cells", "value": "15 to 30", "unit": "min"}, {"measurement": "effect on TNF-α-mediated endothelial adhesion to monocytes", "setting": "endothelial cells [6]; n=6", "value": "did not affect"}, {"measurement": "IC50", "setting": "endothelial cells [6]; read-out: half-maximal inhibitory concentration, endotoxin-mediated monocyte adhesion", "value": "~600", "unit": "nM"}, {"measurement": "enhancement of rate of IL-1β mRNA degradation", "setting": "IL-1β mRNA [7]", "value": "approximately 30%"}]}]}
